# Target: c-kit (Homo sapiens (Human), UniProt P10721)
# Test: Mo7e cell proliferation assay (SCF dependent proliferation)
# Type: cell-based
# Settings: Mo7e cells stimulated with human recombinant SCF, 48 hours, 1% FBS
# Method: Compounds of Formula (I) and Formula (II) provided herein were assayed to measure their capacity to inhibit c-kit and PDGFR kinases using the appropriate assay described below: c-Kit inhibition was evaluated using the Mo7e cell proliferation assay, and PDGFR inhibition was evaluated using the Rat A10 cell proliferation assay and the Human TG/HA-VSMC cell proliferation assay.
# Mo7e Cell Proliferation Assay
# The compounds of Table 1 and Table 2 were tested for inhibition of SCF dependent proliferation using human Mo7e cells which endogenously express c-kit in a 384 well format. […] After 48 hours of incubation at 37° C., cell viability was measured by adding 25 uL of CellTiter Glo (Promega) to the cells and the luminescence was measured by a CLIPR CCD camera (Molecular Devices).
# The IC50 value is given as that concentration of the test compound in question that provoke a response halfway between the baseline and maximum responses.
# Sequence of c-kit (P10721 26-976): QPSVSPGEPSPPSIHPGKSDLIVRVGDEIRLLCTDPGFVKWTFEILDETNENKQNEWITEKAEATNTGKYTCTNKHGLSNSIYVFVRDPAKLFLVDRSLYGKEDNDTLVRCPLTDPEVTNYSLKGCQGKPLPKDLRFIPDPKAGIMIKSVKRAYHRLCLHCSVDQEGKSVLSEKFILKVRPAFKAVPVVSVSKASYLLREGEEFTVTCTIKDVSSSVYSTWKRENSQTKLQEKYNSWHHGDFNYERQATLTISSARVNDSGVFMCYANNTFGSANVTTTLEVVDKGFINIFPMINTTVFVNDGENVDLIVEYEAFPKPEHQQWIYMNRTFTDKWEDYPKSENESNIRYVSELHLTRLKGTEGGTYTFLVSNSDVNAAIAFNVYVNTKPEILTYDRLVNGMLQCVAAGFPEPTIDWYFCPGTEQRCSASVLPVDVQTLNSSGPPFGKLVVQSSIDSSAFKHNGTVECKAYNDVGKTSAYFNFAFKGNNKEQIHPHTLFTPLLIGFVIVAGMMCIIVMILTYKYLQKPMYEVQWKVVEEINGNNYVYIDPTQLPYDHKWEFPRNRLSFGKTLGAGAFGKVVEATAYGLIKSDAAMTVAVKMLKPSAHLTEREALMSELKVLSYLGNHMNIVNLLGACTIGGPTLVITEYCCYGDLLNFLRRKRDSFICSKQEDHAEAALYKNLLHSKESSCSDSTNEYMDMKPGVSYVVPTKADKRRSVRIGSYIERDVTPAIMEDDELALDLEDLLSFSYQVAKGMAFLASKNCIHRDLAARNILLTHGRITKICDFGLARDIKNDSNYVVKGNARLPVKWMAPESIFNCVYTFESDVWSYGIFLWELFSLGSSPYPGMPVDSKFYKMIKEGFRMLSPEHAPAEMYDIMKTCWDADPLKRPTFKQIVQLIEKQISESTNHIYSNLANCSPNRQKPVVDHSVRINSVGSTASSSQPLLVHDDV
row,SMILES,IC50 [µM]
1,"Cc1ccc(-c2noc([C@H]3CC3(F)F)n2)cc1NC(=O)c1cnc2ccccn12 (stereo in doubt) [F87, N-(5-(5-(2,2-difluorocyclopropyl)-1,2,4-oxadiazol-3-yl)-2-methylphenyl)imidazo[1,2-a]pyridine-3-carboxamide]",0.046
2,"Cc1ccc(-c2noc([C@@H]3CC3(F)F)n2)cc1NC(=O)c1cnc2ccccn12 (stereo in doubt) [F88, N-(5-(5-(2,2-difluorocyclopropyl)-1,2,4-oxadiazol-3-yl)-2-methylphenyl)imidazo[1,2-a]pyridine-3-carboxamide]",0.066
3,Cc1ccc(-c2nc(C3CC(F)(F)C3)no2)cc1NC(=O)c1cnc2ccccn12 [F1],0.024
4,Cc1ccc(-c2noc(C3CC(=NO)C3)n2)cc1NC(=O)c1cnc2ccccn12 (stereo not drawn) [F4],0.022
5,Cc1ccc(-c2noc(C3CCC(F)(F)CC3)n2)cc1NC(=O)c1cnc2ccccn12 [F5],0.024
6,"Cc1ccc(-c2noc([C@H]3C[C@@](C)(O)C3)n2)cc1NC(=O)c1cnc2ccccn12 [F6, N-(5-(5-((1s,3s)-3-hydroxy-3-methylcyclobutyl)-1,2,4-oxadiazol-3-yl)-2-methylphenyl)imidazo[1,2-a]pyridine-3-carboxamide]",0.119
7,"CON=C1CC(c2nc(-c3ccc(C)c(NC(=O)c4cnc5ccccn45)c3)no2)C1 (stereo not drawn) [F7, N-(5-(5-(3-(methoxyimino)cyclobutyl)-1,2,4-oxadiazol-3-yl)-2-methylphenyl)imidazo[1,2-a]pyridine-3-carboxamide]",0.015
8,"Cc1ccc(-c2noc(C3CC4(C3)OCCO4)n2)cc1NC(=O)c1cnc2ccccn12 [F8, N-(5-(5-(5,8-dioxaspiro[3.4]octan-2-yl)-1,2,4-oxadiazol-3-yl)-2-methylphenyl)imidazo[1,2-a]pyridine-3-carboxamide]",0.055
9,Cc1ccc(-c2noc(C3CC4(C3)OC[C@@H](C)O4)n2)cc1NC(=O)c1cnc2ccccn12 (stereo partly drawn) [F9],0.052
10,Cc1ccc(-c2noc(C3CC4(C3)OCCCO4)n2)cc1NC(=O)c1cnc2ccccn12 [F10],0.052
11,Cc1ccc(-c2noc(C3CC4(C3)OC[C@H](C)O4)n2)cc1NC(=O)c1cnc2ccccn12 (stereo partly drawn) [F12],0.012
12,CCON=C1CC(c2nc(-c3ccc(C)c(NC(=O)c4cnc5ccccn45)c3)no2)C1 (stereo not drawn) [F14],0.012
13,Cc1ccc(-c2noc(C3CC(=NOCC4CC4)C3)n2)cc1NC(=O)c1cnc2ccccn12 (stereo not drawn) [F15],0.035
14,Cc1ccc(-c2noc(C3CC(=NOC(C)C)C3)n2)cc1NC(=O)c1cnc2ccccn12 (stereo not drawn) [F16],0.066
15,Cc1ccc(-c2noc([C@H]3C[C@H](N)C3)n2)cc1NC(=O)c1cnc2ccccn12 [F17],0.109
16,"COCCO[C@H]1C[C@@H](c2nc(-c3ccc(C)c(NC(=O)c4cnc5ccccn45)c3)no2)C1 [F18, N-(5-(5-((1s,3s)-3-(2-methoxyethoxy)cyclobutyl)-1,2,4-oxadiazol-3-yl)-2-methylphenyl)imidazo[1,2-a]pyridine-3-carboxamide]",0.025
17,[2H]C([2H])([2H])O[C@H]1C[C@@H](c2nc(-c3ccc(C)c(NC(=O)c4cnc5ccccn45)c3)no2)C1 [F19],0.009
18,COCC1(c2nc(-c3ccc(C)c(NC(=O)c4cnc5ccccn45)c3)no2)CC1 [F20],0.049
19,Cc1ccc(-c2noc(C3(NC(=O)OC(C)(C)C)CC3)n2)cc1NC(=O)c1cnc2ccccn12 [F21],0.089
20,Cc1ccc(-c2noc(C3(NS(C)(=O)=O)CC3)n2)cc1NC(=O)c1cnc2ccccn12 [F22],0.056

row,SMILES,IC50 [µM]
1,COC(=O)NC1(c2nc(-c3ccc(C)c(NC(=O)c4cnc5ccccn45)c3)no2)CC1 [F24],0.058
2,"Cc1ccc(-c2noc(C3CC(O)(C(F)(F)F)C3)n2)cc1NC(=O)c1cnc2ccccn12 (stereo not drawn) [F25, N-(5-(5-(3-hydroxy-3-(trifluoromethyl)cyclobutyl)-1,2,4-oxadiazol-3-yl)-2-methylphenyl)imidazo[1,2-a]pyridine-3-carboxamide]",0.013
3,Cc1ccc(-c2noc(CNC(=O)OC3(C)CC3)n2)cc1NC(=O)c1cnc2ccccn12 [F26],0.058
4,COC(=O)NC1(c2nc(-c3ccc(C)c(NC(=O)c4cnc5ccccn45)c3)no2)CCC1 [F27],0.069
5,Cc1ccc(-c2noc(C3(NS(C)(=O)=O)CCC3)n2)cc1NC(=O)c1cnc2ccccn12 [F28],0.095
6,"Cc1ccc(-c2noc(C3(N(C)C)CC3)n2)cc1NC(=O)c1cnc2ccccn12 [F29, N-(5-(5-(1-(dimethylamino)cyclopropyl)-1,2,4-oxadiazol-3-yl)-2-methylphenyl)imidazo[1,2-a]pyridine-3-carboxamide]",0.058
7,C=C1CC(c2nc(-c3ccc(C)c(NC(=O)c4cnc5ccccn45)c3)no2)C1 [F30],0.016
8,"Cc1ccc(-c2noc(C3CC(O)(C4CC4)C3)n2)cc1NC(=O)c1cnc2ccccn12 (stereo not drawn) [F31, N-(5-(5-(3-cyclopropyl-3-hydroxycyclobutyl)-1,2,4-oxadiazol-3-yl)-2-methylphenyl)imidazo[1,2-a]pyridine-3-carboxamide]",0.05
9,"Cc1ccc(-c2noc(C3CC(=CCCO)C3)n2)cc1NC(=O)c1cnc2ccccn12 (stereo not drawn) [F32, N-(5-(5-(3-(3-hydroxypropylidene)cyclobutyl)-1,2,4-oxadiazol-3-yl)-2-methylphenyl)imidazo[1,2-a]pyridine-3-carboxamide]",0.025
10,Cc1ccc(-c2noc(C3CC4(CCCO4)C3)n2)cc1NC(=O)c1cnc2ccccn12 (stereo not drawn) [F33],0.088
11,Cc1ccc(-c2noc(CNC3CC(F)(F)C3)n2)cc1NC(=O)c1cnc2ccccn12 [F34],0.016
12,Cc1ccc(-c2noc(COC3CC(F)(F)C3(F)F)n2)cc1NC(=O)c1cnc2ccccn12 (stereo not drawn) [F35],0.003
13,"Cc1ccc(-c2noc(C3CC(F)C3)n2)cc1NC(=O)c1cnc2ccccn12 (stereo not drawn) [F36, N-(5-(5-(3-fluorocyclobutyl)-1,2,4-oxadiazol-3-yl)-2-methylphenyl)imidazo[1,2-a]pyridine-3-carboxamide]",0.028
14,"Cc1ccc(-c2noc(C3CC(F)(F)C3)n2)cc1NC(=O)c1cnc2ccc(CO)cn12 [F37, N-(5-(5-(3,3-difluorocyclobutyl)-1,2,4-oxadiazol-3-yl)-2-methylphenyl)-6-(hydroxymethyl)imidazo[1,2-a]pyridine-3-carboxamide]",0.06
15,Cc1ccc(-c2noc(C3CC(F)(F)C3)n2)cc1NC(=O)c1cnc2ccc(COCCO)cn12 [F38],0.025
16,COCc1ccc2ncc(C(=O)Nc3cc(-c4noc(C5CC(F)(F)C5)n4)ccc3C)n2c1 [F39],0.037
17,"Cc1ccc(-c2noc(C3CC(F)(F)C3)n2)cc1NC(=O)c1cnc2ccc(-c3cn[nH]c3)cn12 [F40, N-(5-(5-(3,3-difluorocyclobutyl)-1,2,4-oxadiazol-3-yl)-2-methylphenyl)-6-(1H-pyrazol-4-yl)imidazo[1,2-a]pyridine-3-carboxamide]",0.009
18,Cc1ccc(-c2noc(C3CC(F)(F)C3)n2)cc1NC(=O)c1cnc2ccc(-c3cnn(CCO)c3)cn12 [F41],0.011
19,Cc1ccc(-c2noc(C3CC(F)(F)C3)n2)cc1NC(=O)c1cnc2ccc(-c3cnn(C)c3)cn12 [F42],0.007

# Same assay, conditions: Mo7e cells stimulated with human recombinant SCF, 48 hours, 20% FBS (values marked *)
row,SMILES,IC50 [µM]
1,Cc1ccc(-c2noc(C3CCC(=O)C3)n2)cc1NC(=O)c1cnc2ccccn12 (stereo not drawn) [F2],0.058
2,Cc1ccc(-c2noc(C3CC(C)(O)C3)n2)cc1NC(=O)c1cnc2ccccn12 (stereo not drawn) [F3],0.164
3,Cc1ccc(-c2noc(C3CC(=O)C3)n2)cc1NC(=O)c1cnc2ccccn12 [F11],0.041
